Format in all cases: in vivo
Data set [1] concerns para-chloroamphetamine (PCA)-induced ejaculation model in anaesthetized Wistar rats. The experiment in a line: Rat para-chloroamphetamine (PCA)-induced ejaculation model (ejaculation, latency, seminal vesicle pressure). The note with it: for Seminal vesicle pressure response vs vehicle, FIG. 10, FIG. 11 / Ejaculation latency vs vehicle, FIG. 9: 20 mg/kg or 10 mg/kg IP 1 h before PCA. The procedure:
Experiments were performed to assess the effect of an acute treatment of alkaloids, mesembrine, mesembrenone, mesembrenol and mesembranol, at their maximal tolerable dose (MTD) on ejaculation latency in a para-chloroamphetamine (PCA)-induced ejaculation model in anaesthetized Wistar rats.
Adult male Wistar rats (Charles-River, France, 10-11 weeks old) were housed at least 10 days prior to the beginning of the experiments with free access to regular diet and water and maintained on an inversed 12 hour dark/light cycle (9:00/21:00). All procedures were performed in accordance with the legislation on the use of laboratory animals (NIH publication N°85-23, revised 1996) and Animal Care Regulations in force in France as of 1988 (authorization from competent French Ministry of Agriculture—Agreement No. B78-423-1, July 2017).
Rats received a single administration by intraperitoneal (IP) route of either vehicle, mesembrine, mesembrenone, mesembrenol, or mesembranol 1 hour before the in vivo evaluation of PCA-induced ejaculation as follows:
Part 1: Rats received a single IP injection of either vehicle control (0.5% hydroxypropyl methylcellulose (HPMC) in sterile water, n=10), mesembrine at 20 mg/kg (n=9), 10 mg/kg (n=11), 2 mg/kg (n=12), 200 μg/kg (n=12) and 20 μg/kg (n=10) 1 hour prior to administration of PCA. Treatment groups for Part I are outlined below in Table 2:
Part 2: Rats received a single IP injection of mesembrenone at 20 mg/kg (n=10). Treatment groups for Part 2 are outlined in Table 3.
Part 3: Rats received single IP injection of mesembrenol at 20 mg/kg (n=4) or 10 mg/kg (n=6) or mesembranol at 20 mg/kg (n==6) or 10 mg/kg (n=6). Treatment for Part 3 are outlined in Table 4.
After treatment administration, the rats underwent an evaluation of their ejaculation function induced by PCA administration. Thus, the expulsion of seminal plug(s) and seminal vesicle pressure (SVP) increase was evaluated. At the end of experimental period, the rats were euthanized by an intracardiac injection of pentobarbital (Eutasol®, Centravet, France).
Drug Preparation. Alkaloids were diluted to a 100 mg/mL final concentration (stock solution) and mixed by vortex. Then, aliquots per rat were prepared and stored at −20° C. until use. The day of experiment, 1 aliquot per rat was thawed and diluted to the desired concentration. The volume of administration was either 2 mL/kg for the IP administration or 5 mL/kg for the oral gavage, in line with good practice for administration volume in rat.
Ejaculation was induced by intraperitoneal administration of P-chloroamphetamine (PCA) at 5 mg/kg in anesthetized rats according to previously described methods (Clement el al., Role of peripheral innervation in p-chloroamphetamine-induced ejaculation in anesthetized rats. J Androl 2006; 27:381-389). PCA is an amphetamine derivative that liberates catecholamines and serotonin from monoaminergic nerve terminals. Systemic administration of PCA has been reported to induce ejaculation in both conscious (Humphries et al, 1981; Rènyi, 1985) and anesthetized (Yonezawa et al, 2000) rats.
Seminal vesicle pressure (SW) was measured as a physiological marker for the emission phase of ejaculation (Clement P, Giuliano F. Physiology and Pharmacology of Ejaculation. Basic Clint Pharmacol Toxicol 201.6 119 Suppl 3:18-25),
Rats were anesthetized and their temperature maintained at 37° C. using a homoeothermic blanket. The carotid artery was catheterized with polyethylene tubings filled with heparinized saline (50 UI/ml) to record continuously blood pressure (BP) via a pressure transducer (Elcomatic 750, Glasgow, UK). Pressure was recorded using specific data acquisition software (Elphy, CNRS, France).
For measuring SVP, a suprapubic midline incision was performed to expose seminal vesicles and a polyethylene catheter (0.50 mm), filled with mineral oil, was inserted into one seminal vesicle through the apex and connected to a pressure transducer (Elcomatic 750, Glasgow, UK). […]

The next data set deals with Wistar rats. As to the kind of experiment: Maximal tolerable dose (MTD) in rats. The note with it: rat, single IP administration.
Data set [2] relates to healthy human male subjects. As to the kind of experiment: Ejaculation latency in healthy human males after pure mesembrine. The note with it: Subject D, 70 kg; 0.05 mg; Self; nasal spray (in aqueous 1% w/w NaCl).
Data set [3] deals with healthy human male subjects. The description is as above. The procedure: Experiments were performed to determine the effects of pure mesembrine on ejaculation in male subjects. 0.5 mg, 1 mg, 2.5 mg, and 5 mg doses of pure mesembrine (Cayman Chemical Company, MI, USA) were administered by oral, nasal or sublingual routes to healthy human male subjects. The formulation for oral (swallowed) and sublingual (held under tongue for 5 minutes) was 2 mg mesembrine/mL 40% aqueous for oral and sublingual. The nasal spray formulation was 0.4 mg mesembrine/mL 1% w/w NaCl saline delivered via metered nasal spray device. Mesembrine was administered 20 minutes prior to sexual activity. The sexual activity was either solo masturbation (“self”) or partnered intercourse with a female partner (“partnered”). Latency time of ejaculation was measured and calculated by time from start of sexual activity to ejaculation. […] In all test cases, ejaculation coincided with orgasm. In all cases where ejaculation was not achieved, orgasm was also not achieved.

[4] abbreviates: mesembrine 20 μg/kg single IP 1 h before PCA, 30-min observation.
[5] abbreviates: mesembrine 200 μg/kg single IP 1 h before PCA, 30-min observation.
[6] abbreviates: mesembrine 2 mg/kg single IP 1 h before PCA, 30-min observation.
[7] abbreviates: mesembrine 10 mg/kg single IP 1 h before PCA, 30-min observation.
The mark [8] stands for this setting: mesembrine 20 mg/kg single IP 1 h before PCA, 30-min observation.

For `COc1ccc([C@@]23CC[C@@H](O)C[C@@H]2N(C)CC3)cc1OC` [mesembranol], the “Seminal vesicle pressure response vs vehicle, FIG. 10, FIG. 11” value in data set [1] is listed as “decreased”. Moreover, the “Ejaculation latency vs vehicle, FIG. 9” value in data set [1] (30-min observation) is given as “delayed ejaculation”.

Turning to `COc1ccc([C@@]23C=CC(=O)C[C@@H]2N(C)CC3)cc1OC` [mesembrenone], the “Seminal vesicle pressure response vs vehicle, FIG. 7, FIG. 8” value in data set [1] (20 mg/kg IP 1 h before PCA) was “decreased”. Moreover, the “Ejaculation latency vs vehicle, FIG. 6” value in data set [1] (20 mg/kg IP 1 h before PCA, 30-min observation) was “delayed ejaculation”.

With `COc1ccc([C@@]23CCC(=O)C[C@@H]2N(C)CC3)cc1OC` [Mesembrine, mesembrine], the “maximal tolerable dose (MTD)” value in the data set on Wistar rats is reported as 20 mg/kg (MTD). Also, the Qualitative experience entry in data set [2] was “Effects noticed more rapidly than oral dosing”; in data set [3] (Subject A, 77 kg, 0.5 mg, Self, sublingual (5 min under tongue)), “Orgasm with drug was more intense than average”; in data set [3] (Subject A, 77 kg, 1 mg, Self, sublingual (5 min under tongue)) it was “Onset after dosing with drug felt at around 9 min;”; in data set [3] (Subject B, 75 kg, 0.5 mg, Self, oral) it was “Significant lengthening of latency time noticed”; in data set [3] (Subject C, 100 kg, 0.5 mg, Self, oral), “Did not complete ejaculation as an effect of drug”; in data set [3] (Subject D, 70 kg, 1 mg, Self, oral) it was “Satisfactory dosing to maintain control and easily”. The Qualitative experience result in data set [3] (Subject D, 70 kg, 2.5 mg, Partnered, oral) was “Increased satisfaction from female partner noted”; in data set [3] (Subject D, 70 kg, 5 mg, Partnered, oral) it was “Did not complete ejaculation as an effect of drug”. Also, the “ejaculation during the 30-minute observation period (in words)” value in data set [1] (20 mg/kg IP 1 h before PCA) was “did not ejaculate”. Besides, the “rats that did not ejaculate during the 30-min observation period following PCA injection” value in data set [1] (20 mg/kg IP 1 h before PCA) was 100%. Moreover, the “Ejaculation latency (ejaculatory response vs vehicle control), FIG. 3” value in data set [1] (all dosage conditions tested (20 μg/kg to 20 mg/kg IP)) was “delayed ejaculatory response”. For the same molecule, the “Seminal vesicle pressure response assessed as amplitude and AUC vs vehicle control, FIG. 4, FIG. 5” value in data set [1] (all mesembrine treatment cases (20 μg/kg to 20 mg/kg IP)) is “decreased”. For the same molecule, the “N of ejaculating rats” value in data set [1] (setting [4]) was 9/9; in data set [1] (setting [5]), 10/11; in data set [1] (setting [6]) it was 4/12; in data set [1] (setting [7]), 7/12; in data set [1] (setting [8]), 0/10. Further, the “N of rats not ejaculating” value is recorded as 0/9 in data set [1] (setting [4]); 1/11 in data set [1] (setting [5]); 8/12 in data set [1] (setting [6]); 5/12 in data set [1] (setting [7]); 10/10 in data set [1] (setting [8]). Besides, the “Percentage of ejaculating rats” value came to 100% in data set [1] (setting [4]); 91% in data set [1] (setting [5]); 33% in data set [1] (setting [6]); 58% in data set [1] (setting [7]); 0% in data set [1] (setting [8]). For the same molecule, the “ejaculation latency (in words)” value in data set [3] (all doses tested, oral, nasal or sublingual, 20 minutes prior to sexual activity) was “extended the ejaculation latency at all doses tested”.

Turning to `COc1ccc(C23C=CC(O)CC2N(C)CC3)cc1OC` (centres unmarked) [mesembrenol], in data set [1], the “Seminal vesicle pressure response vs vehicle, FIG. 10, FIG. 11” value is reported as “decreased”. For the same molecule, the “Ejaculation latency vs vehicle, FIG. 9” value in data set [1] (30-min observation) is given as “delayed ejaculation”.

The values are drawn from patent US20240050407A1, “METHODS FOR DELAY OF EJACULATION IN HUMAN MALES” (priority 2020, published 2024).
